Activity calls are given as the source filed them.
Assays:
Cytochrome P450 2C19 = Cytochrome P450 2C19 (Homo sapiens, UniProt P33261); assay: Cytochrome panel assay with activity outcomes. Panel member name: p450-cyp2c19 Compounds with AC50 equal or less than 10 uM are considered active; format: functional; settings: read-out: AC50
Cytochrome P450 2D6 = Cytochrome P450 2D6 (Homo sapiens, UniProt P10635);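 note: CYP2D6 member of a cytochrome P450 panel assay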
Cytochrome P450 3A4 = Cytochrome P450 3A4 (Homo sapiens, UniProt P08684);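 note: CYP3A4 tested as one member of a cytochrome P450 panel screen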
Chain of Cytochrome P450 3A4 (P08684 whole entry): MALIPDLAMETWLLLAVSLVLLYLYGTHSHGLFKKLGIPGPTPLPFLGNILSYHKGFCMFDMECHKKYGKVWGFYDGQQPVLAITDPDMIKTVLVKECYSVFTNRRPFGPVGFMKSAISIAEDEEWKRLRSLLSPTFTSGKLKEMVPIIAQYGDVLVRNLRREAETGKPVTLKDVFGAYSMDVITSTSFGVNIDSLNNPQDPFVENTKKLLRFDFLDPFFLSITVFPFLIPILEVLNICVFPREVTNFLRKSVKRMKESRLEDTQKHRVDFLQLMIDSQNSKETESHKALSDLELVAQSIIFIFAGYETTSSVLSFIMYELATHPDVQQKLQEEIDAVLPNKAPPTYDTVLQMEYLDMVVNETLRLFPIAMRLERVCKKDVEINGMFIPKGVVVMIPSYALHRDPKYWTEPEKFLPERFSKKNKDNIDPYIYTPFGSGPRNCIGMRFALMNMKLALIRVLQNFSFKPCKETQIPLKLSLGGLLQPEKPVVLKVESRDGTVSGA

[1] = inhibitors of intracellular T. cruzi replication, confirmation, NIH3T3 host cells, beta-gal luminescence (AID 2044); format: functional, cell-based;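 note: intracellular parasites grown in NIH/3T3 mouse fibroblasts as host cells; luminescent beta-galactosidase reporter signal from transgenic T. cruzi replicating inside host cells; inhibitors lower the luminescence signal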
[2] = cytotoxicity toward NIH3T3 fibroblasts, dose response, counter-screen, cell-based, ATP luminescence, mouse fibroblasts (AID 2010); format: functional;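 note: cells exposed to compound for about 90 hours before reading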
Streptococcus = assay: Group A Streptococcus viability loss, dose response, counter-screen for streptokinase expression inhibitor project, luminescence, BacTiterGlo (AID 1915); format: functional, organism-based;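 note: potency for reduction of bacterial viability or growth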
[3] = system: Streptococcus sp. 'group A'; assay: growth inhibition of control SK(-) GAS strain, dose response, counter-screen for streptokinase expression inhibitor project, luminescence, kanamycin, BacTiterGlo, confirmation (AID 1900); format: functional, organism-based
Streptokinase A = target: T1, Streptokinase A (Streptococcus pyogenes serotype M1, UniProt P10520); assay: S. pyogenes streptokinase expression inhibitors, potency, dose response, plasminogen activation absorbance, OD405 (AID 1914); format: functional, Streptococcus pyogenes M1 GAS;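 note: secreted streptokinase activity via plasminogen activation per viability signal from cell pellet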
T1 sequence (P10520 whole entry): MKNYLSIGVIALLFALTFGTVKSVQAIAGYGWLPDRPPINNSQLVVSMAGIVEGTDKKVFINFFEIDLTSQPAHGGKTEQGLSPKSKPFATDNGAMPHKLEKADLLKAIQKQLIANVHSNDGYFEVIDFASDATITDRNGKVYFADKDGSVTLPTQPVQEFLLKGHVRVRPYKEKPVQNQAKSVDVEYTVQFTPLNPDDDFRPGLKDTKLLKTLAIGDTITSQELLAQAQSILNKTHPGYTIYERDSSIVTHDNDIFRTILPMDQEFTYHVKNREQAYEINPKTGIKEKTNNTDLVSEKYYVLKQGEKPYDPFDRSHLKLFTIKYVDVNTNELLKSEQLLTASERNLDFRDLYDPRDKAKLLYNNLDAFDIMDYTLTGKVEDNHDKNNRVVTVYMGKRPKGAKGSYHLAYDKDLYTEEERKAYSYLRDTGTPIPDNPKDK

Chain of Cytochrome P450 2C19 (P33261 whole entry): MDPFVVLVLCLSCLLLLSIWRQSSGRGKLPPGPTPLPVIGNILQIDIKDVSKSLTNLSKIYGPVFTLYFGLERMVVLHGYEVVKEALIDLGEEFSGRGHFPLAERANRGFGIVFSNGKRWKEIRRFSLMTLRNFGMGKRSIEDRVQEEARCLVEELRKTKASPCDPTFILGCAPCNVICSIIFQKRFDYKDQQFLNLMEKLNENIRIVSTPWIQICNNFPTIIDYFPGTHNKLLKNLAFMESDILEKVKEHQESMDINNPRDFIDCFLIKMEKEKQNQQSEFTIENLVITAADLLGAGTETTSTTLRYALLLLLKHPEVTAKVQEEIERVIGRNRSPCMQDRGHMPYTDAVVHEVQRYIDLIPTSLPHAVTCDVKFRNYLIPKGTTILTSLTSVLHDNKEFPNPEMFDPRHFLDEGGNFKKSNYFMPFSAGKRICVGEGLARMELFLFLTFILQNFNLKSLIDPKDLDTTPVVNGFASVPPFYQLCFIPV
Chain of Cytochrome P450 2D6 (P10635 whole entry): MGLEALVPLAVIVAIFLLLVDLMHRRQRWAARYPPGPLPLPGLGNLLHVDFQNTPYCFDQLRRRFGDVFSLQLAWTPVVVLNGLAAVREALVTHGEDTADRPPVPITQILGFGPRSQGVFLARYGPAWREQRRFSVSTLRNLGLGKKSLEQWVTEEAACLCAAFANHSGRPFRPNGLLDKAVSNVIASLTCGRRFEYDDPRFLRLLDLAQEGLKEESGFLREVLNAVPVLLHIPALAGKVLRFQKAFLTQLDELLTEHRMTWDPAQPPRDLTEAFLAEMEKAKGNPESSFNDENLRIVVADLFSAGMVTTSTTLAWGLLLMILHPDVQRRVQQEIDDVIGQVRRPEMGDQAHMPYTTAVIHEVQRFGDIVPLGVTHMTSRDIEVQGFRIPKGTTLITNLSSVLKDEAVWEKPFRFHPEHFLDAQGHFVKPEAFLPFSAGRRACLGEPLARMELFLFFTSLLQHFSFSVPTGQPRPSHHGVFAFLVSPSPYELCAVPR

For `COc1ccc(C2N=C(N)N=C(N)N2c2ccccc2OC)cc1OC` (stereo not drawn), the AC50 (Cytochrome P450 2C19) was 39.8 µM (inconclusive).

With `CC[C@]1(c2cccc(O)c2)CCCCN(C)C1` the AC50 (Cytochrome P450 2D6) was 10 µM (inconclusive).

For `COc1ccc(CNc2cc(-c3ccccc3Cl)ncn2)c(OC)c1`, the AC50 (Cytochrome P450 2D6) was 39.8 µM (inconclusive).

For `CN(C)c1ccc(/C=N\NC(=O)c2cnc3ccccc3c2)cc1`, the AC50 (Cytochrome P450 3A4) was 3.98 µM (inconclusive).

In the case of `Cc1nn(Cc2c(F)c(F)c(F)c(F)c2F)c(C)c1NC(=O)c1ccc(COc2ccc(Cl)cc2Cl)o1`, the EC50 [1] is reported as 1.11 µM (active) and the EC50 [2] is reported as > 60 µM (not active).

For `O=c1cnc2cnc(N3CCNCC3)nc2n1Cc1cccs1`, the AC50 (Cytochrome P450 3A4) was 15.8 µM (inconclusive) and the AC50 (Cytochrome P450 2D6) was 20 µM (inconclusive).

In the case of `CC(CC(=O)Nc1nc2ccccc2[nH]1)c1ccccc1` (stereo not drawn), the EC50 (Streptococcus) is reported as > 150 µM (not active), the EC50 [3] is reported as > 150 µM (not active) and the EC50 (Streptokinase A) is reported as > 150 µM (not active).

For `Cc1ccccc1S(=O)(=O)c1c(C)cc(-c2ccccc2)nc1O`, the AC50 (Cytochrome P450 3A4) was 28.2 µM (inconclusive).

With `CN(C)Cc1ccccc1-c1nccc(Nc2ccc(F)cc2)n1` the AC50 (Cytochrome P450 3A4) was 15.8 µM (inconclusive).

In the case of `CCSc1nnc(NC(=O)c2nc(-c3ccccc3)n(-c3ccccc3)n2)s1`, the EC50 (Streptococcus) is reported as 16.5 µM (active), the EC50 [3] is reported as 7.28 µM (active) and the EC50 (Streptokinase A) is reported as 20.2 µM (active).

With `CCC(=O)N(CCC(Cc1ccccc1)c1ccc2c(c1)OCO2)Cc1ccccc1F` (stereo not drawn) the EC50 (Streptococcus) was 40.3 µM (active), the EC50 [3] was 12.2 µM (active) and the EC50 (Streptokinase A) was 10.7 µM (active).

In the case of `COc1ccc(/C=C2\SC(=O)N(CCNC(=O)C3CC(=O)N(c4ccccc4)C3)C2=O)cc1` (stereo not drawn), the AC50 (Cytochrome P450 2D6) is reported as 20 µM (inconclusive).

For `CCCN1CCN(CCCNC(=O)Cn2nc(-c3ccc(C)cc3)ccc2=O)CC1`, the AC50 (Cytochrome P450 2D6) was 20 µM (inconclusive).

In the case of `O=C(COc1cccnc1[N+](=O)[O-])N1N=C(c2ccc(Cl)cc2)CC1c1ccco1` (stereo not drawn), the EC50 [1] is reported as 2.8 µM (active) and the EC50 [2] is reported as > 60 µM (not active).

With `CC(C)=CCC/C(C)=C/CO/N=C1/C[C@@H](O)[C@@H](O)[C@@H]2[C@H]3C(=O)N(c4ccc(F)cc4F)C(=O)[C@@H]3CC[C@H]12` the AC50 (Cytochrome P450 3A4) was 3.98 µM (inconclusive).

In the case of `Cc1ccc(Sc2cc(C(=O)NCCCN(C)C)c3ccccc3n2)cc1`, the EC50 [1] is reported as 0.133 µM (active) and the EC50 [2] is reported as 14.6 µM (active).

For `COc1ccc(N2CCN(CC(=O)Nc3nc4c(s3)CC(C)CC4)CC2)cc1` (stereo not drawn), the EC50 (Streptococcus) was > 150 µM (not active), the EC50 [3] was 23.8 µM (active) and the EC50 (Streptokinase A) was > 150 µM (not active).

In the case of `O=C(COn1nnc2ccc(C(F)(F)F)cc21)Nc1nnc(-c2ccccc2)o1`, the EC50 (Streptococcus) is reported as 3.65 µM (active) and the EC50 [3] is reported as 2.77 µM (active).

With `Cc1cccc(-n2nc([N+](=O)[O-])c(NCc3cccnc3)[n+]2[O-])c1` the EC50 [1] was 0.582 µM (active), the AC50 (Cytochrome P450 2D6) was 12.6 µM (inconclusive) and the EC50 [2] was > 60 µM (not active).

With `O=c1c(-c2ccc(F)cc2)nc2cncnc2n1-c1ccccc1` the AC50 (Cytochrome P450 3A4) was 12.6 µM (inconclusive) and the AC50 (Cytochrome P450 2D6) was 20 µM (inconclusive).

For `CCCNC(=O)OC[C@@H]1O[C@H](c2ccccc2)C=C[C@@H]1Oc1ccc(OC)cc1`, the AC50 (Cytochrome P450 2D6) was 3.16 µM (inconclusive).

In the case of `S=C(Nc1ccccc1)Nc1ccccc1C#Cc1ccccc1`, the AC50 (Cytochrome P450 3A4) is reported as 7.94 µM (inconclusive) and the AC50 (Cytochrome P450 2D6) is reported as 15.8 µM (inconclusive).

For `O=c1c(CCc2ccccc2)nc2cnc(N3CCNCC3)nc2n1C1CC1`, the AC50 (Cytochrome P450 3A4) was 12.6 µM (inconclusive) and the AC50 (Cytochrome P450 2D6) was 39.8 µM (inconclusive).

In the case of `COc1cccc(-c2nccc(NCc3cccnc3)n2)c1`, the AC50 (Cytochrome P450 2D6) is reported as 25.1 µM (inconclusive).

With `COC(=O)[C@@]1(Cc2ccc(OC)cc2)[C@H]2c3cc(C(=O)N4CCCC4)n(CCc4ccc(O)c(O)c4)c3C[C@H]2CN1C(=O)c1ccccc1` the AC50 (Cytochrome P450 2D6) was 39.8 µM (inconclusive).

With `O=C(Nc1ccccc1)N1CCCC2(CCN(C(=O)c3cccc(F)c3)CC2)C1` the AC50 (Cytochrome P450 2C19) was 10 µM (inconclusive).

With `COc1ccc(N2CC(C(=O)Nc3nnc(SCc4cccnc4)s3)CC2=O)cc1` (stereo not drawn) the EC50 (Streptococcus) was > 150 µM (not active), the EC50 [3] was > 150 µM (not active) and the EC50 (Streptokinase A) was > 150 µM (not active).

In the case of `COc1ccccc1N1CCN(C/C=C/c2ccc(N(C)C)cc2)CC1`, the EC50 [1] is reported as 1.46 µM (active) and the EC50 [2] is reported as > 60 µM (not active).

With `Cc1ccc(C(c2nnnn2C2CCCC2)N2CCN3CCCC3C2)cc1` (stereo not drawn) the AC50 (Cytochrome P450 2C19) was 31.6 µM (inconclusive).

With `Cn1nc(C(=O)NC2CCCCC2)c2ccccc2c1=O` the AC50 (Cytochrome P450 3A4) was 5.01 µM (inconclusive) and the AC50 (Cytochrome P450 2D6) was 10 µM (inconclusive).

With `Cc1c(Cc2ccccc2)c(=O)oc2cc(OCc3ccc(C(=O)O)cc3)ccc12` the EC50 (Streptococcus) was > 50 µM (not active), the EC50 [3] was 7.39 µM (active) and the EC50 (Streptokinase A) was > 150 µM (not active).

In the case of `COc1cccc(CC2(CO)CCCN(C/C=C/c3ccccc3OC)C2)c1` (stereo not drawn), the EC50 [1] is reported as 0.209 µM (active) and the EC50 [2] is reported as > 60 µM (inconclusive).

In the case of `CCCCCC(=O)Nc1cccc(C2=NOC3(C2)C[C@@H](C(N)=O)N(C(=O)c2ccc(Cl)cc2)C3)c1` (stereo partly drawn), the EC50 [1] is reported as 0.374 µM (active) and the EC50 [2] is reported as > 30 µM (not active).

For `Cc1cc(Br)ccc1NC(=O)CN1C(=O)C2C3CC(c4ccccc4)C(C3)C2C1=O` (stereo not drawn), the EC50 [1] was 2.6 µM (active) and the EC50 [2] was > 60 µM (not active).

In the case of `Cc1ccc(S(=O)(=O)Nc2ccc(Cl)cc2)cc1NC(=O)c1cc2c(s1)CCCC2`, the EC50 (Streptococcus) is reported as 14.9 µM (active), the EC50 [1] is reported as 1.18 µM (active) and the EC50 [3] is reported as 4.39 µM (active). For the same molecule, the EC50 (Streptokinase A) was > 150 µM (not active) and the EC50 [2] was 25.8 µM (active).

For `COc1ccccc1-c1cc(-c2ccccc2)nc(SCC(=O)O)c1C#N`, the EC50 (Streptococcus) was 13.4 µM (active), the EC50 [3] was 3.36 µM (active) and the EC50 (Streptokinase A) was 1.72 µM (active).

With `C/C(CCN1CCCc2nc(C)c(C)cc21)=N\OC[C@@H](O)COCc1ccco1` the AC50 (Cytochrome P450 2D6) was 3.16 µM (inconclusive).

With `COc1ccc2sc(N(CCCN(C)C)C(=O)c3ccc(S(=O)(=O)N4CCCc5ccccc54)cc3)nc2c1` the EC50 [1] was 0.139 µM (active) and the EC50 [2] was 5.35 µM (active).

In the case of `CCc1ncc(CO)n1Cc1cccc2ccccc12`, the AC50 (Cytochrome P450 2C19) is reported as 0.398 µM (inconclusive).

With `CNc1ccnc(-c2ccccc2C(F)(F)F)n1` the AC50 (Cytochrome P450 3A4) was 25.1 µM (inconclusive) and the AC50 (Cytochrome P450 2C19) was 25.1 µM (inconclusive).

For `COc1ccc(OC)c(-c2cc(C(=O)Nc3cccc(Cl)c3)no2)c1`, the EC50 [1] was 2.43 µM (active) and the EC50 [2] was > 30 µM (not active).

For `CCCS(=O)(=O)N1CCCC(C(=O)NCCN(C)Cc2ccccc2)C1` (stereo not drawn), the AC50 (Cytochrome P450 2D6) was 5.01 µM (inconclusive).

With `N#Cc1cccc(NC(=O)N2CC[C@@]3(CCCNC3)C2)c1` the AC50 (Cytochrome P450 3A4) was 25.1 µM (inconclusive).

For `Cn1c(S)nnc1-c1cc(Br)ccc1O`, the EC50 (Streptococcus) was > 150 µM (not active) and the EC50 [3] was 11 µM (active).

In the case of `COc1ccc(C2C(=O)N(CCc3ccccc3)CC(=O)N2C2CCCC2)cc1` (stereo not drawn), the AC50 (Cytochrome P450 2D6) is reported as 14.1 µM (inconclusive).

For `CN(C)c1ncc2nc(-c3cccs3)c(=O)n(Cc3cccs3)c2n1`, the AC50 (Cytochrome P450 3A4) was 3.16 µM (inconclusive).

In the case of `COCCNc1nc(-c2ccc(N(C)C)cc2)nc2ccccc12`, the AC50 (Cytochrome P450 2D6) is reported as 39.8 µM (inconclusive).

With `CC(C)(C)c1ccc(O)c(/N=C/c2c(O)ccc3ccccc23)c1` the EC50 (Streptococcus) was > 150 µM (not active), the EC50 [3] was 5.5 µM (active) and the EC50 (Streptokinase A) was > 150 µM (not active).

For `Cc1ccc(C)c(/C=N/NC(=S)NCCc2ccccc2)c1`, the EC50 (Streptococcus) was > 150 µM (not active), the EC50 [3] was 32.3 µM (active) and the EC50 (Streptokinase A) was > 150 µM (not active).

With `Nc1cc(Cl)nc(N/N=C/c2ccccc2[N+](=O)[O-])n1` the AC50 (Cytochrome P450 2C19) was 8.91 µM (inconclusive).

For `Cc1c(-c2ccc(O)cc2)nn(-c2ccc(O)cc2)c1-c1ccc(OCCN2CCCCC2)cc1`, the AC50 (Cytochrome P450 3A4) was 3.16 µM (inconclusive).

With `CCc1ccc(C2=Nn3c(nnc3-c3cccs3)SC2)cc1` the AC50 (Cytochrome P450 2C19) was 5.62 µM (inconclusive).
